Measurements taken from patent US20060264460A1 (Wyeth, priority 2005, published 2006).

The compounds below were run against T1, human Cot/Tpl2 kinase (Homo sapiens, UniProt P41279) (assay: Tpl2/Cot kinase assay: GST-MEK1 phosphorylation detected by ELISA (DELFIA Eu)). Conditions: 0.4 nM Tpl2, 35 nM GST-MEK1, 50 uM ATP, 1 h at 30° C.
T1 construct: human Cot/Tpl2 kinase construct encoding residues 30-398; 6His (N); made in house; host or cells: Sf9 insect cells, baculovirus system (BD Biosciences)
T1 sequence (P41279 30-398): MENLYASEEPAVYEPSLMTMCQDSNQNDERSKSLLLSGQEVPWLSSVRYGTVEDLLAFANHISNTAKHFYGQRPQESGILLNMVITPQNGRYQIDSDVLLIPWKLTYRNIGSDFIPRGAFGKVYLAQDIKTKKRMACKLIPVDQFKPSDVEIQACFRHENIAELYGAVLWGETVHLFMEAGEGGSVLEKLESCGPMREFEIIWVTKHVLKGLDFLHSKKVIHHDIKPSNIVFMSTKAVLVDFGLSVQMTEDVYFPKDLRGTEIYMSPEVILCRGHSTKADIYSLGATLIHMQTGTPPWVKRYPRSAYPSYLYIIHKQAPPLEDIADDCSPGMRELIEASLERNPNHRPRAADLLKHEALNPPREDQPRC
Type: biochemical
Experimental: Sf9 cells expressing the kinase were lysed in 50 mM NaPhosphate pH=8; 300 mM NaCl; 5 mM imidazole; 0.1 mM EGTA; 25 mM beta-glycerophosphate; 1% TX-100, 1% glycerol; 6 mM beta-mercaptoethanol and protease inhibitors. The lysate was clarified by centrifugation and was loaded onto a Ni-Sepharose column. The column was washed with 50 mM NaPhosphate pH=8; 300 mM NaCl; 15 mM imidazole; 1% glycerol; and 6 mM beta-mercaptoethanol. His-Tpl2 was eluted with 50 mM NaPhosphate pH=8; 300 mM NaCl; 250 mM imidazole; 1% glycerol; and 6 mM beta-mercaptoethanol. The eluted protein was further purified by size exclusion chromatography. Fractions corresponding to monomeric Tpl2 were then used in the assay.
Tpl2/Cot activity was directly assayed using GST-MEK1 as a substrate. GST-MEK1 phosphorylation on serine residues 217 and 221 was detected by ELISA. 0.4 nM Tpl2 was incubated with 35 nM GST-MEK1 in a kinase reaction buffer containing 20 mM MOPS pH=7.2; 50 uM ATP; 20 mM MgCl2; 1 mM DTT; 25 mM β-glycerophosphate; 5 mM EGTA; and 1 mM sodium orthovanadate for 1 h at 30° C. The compounds of the inventions solubilized in 100% DMSO were pre-diluted in assay buffer so that the final concentration of DMSO in the reaction was 1%. The kinase reaction was carried out in 100 ul volume on 96 well plates. The kinase reaction was then stopped with the addition of 100 mM EDTA. […] After a 1 hour incubation at room temperature, the detection plate was washed 4 times with TBST (TBS+0.05% Tween 20) and then incubated for another hour at room temperature with anti phospho-MEK1 antibody (Cell Signaling) 1:1000 in 10 mM MOPS 7.5; 150 mM NaCl; 0.05% Tween 20; 0.1% Gelatin; 0.02% NaN3; and 1% BSA. The detection plate was washed again and incubated for 30 min with DELFIA Europium (Eu) labeled goat anti-rabbit IgG (Perkin-Elmer), 1:4000 in the same buffer used for the primary incubation. After a final wash, Eu detection solution was added to each well and the Eu signal was measured in a Wallac Victor^2 Multilabel Counter. IC50 calculations were performed using the XLfit software package (IDBS, Guildford, UK).
Work on `N#Cc1cnc2c(Br)cc(NC(=O)Cc3cnc[nH]3)cc2c1Nc1ccc(F)c(Cl)c1` [Example 117, N-(8-bromo-4-(3-chloro-4-fluorophenylamino)-3-cyanoquinolin-6-yl)-2-(1H-imidazol-5-yl)acetamide] yielded an IC50 greater than 40000 nM.
`COc1cc(NCc2cccnc2)cc2c(Nc3ccc(F)c(Cl)c3)c(C#N)cnc12` [Example 28, 4-(3-Chloro-4-fluoro-phenylamino)-8-methoxy-6-[(pyridin-3-ylmethyl)-amino]-quinoline-3-carbonitrile] gave an IC50 of 1100 nM.
For `N#Cc1cnc2c(Cl)cc(NCc3cncnc3)cc2c1Nc1ccc(F)c(Cl)c1` [Example 272, 8-Chloro-4-(3-chloro-4-fluoro-phenylamino)-6-[(pyrimidin-5-ylmethyl)-amino]-quinoline-3-carbonitrile], the IC50 was 47 nM.
Work on `N#Cc1cnc2ccc(NCc3cccnc3)cc2c1Nc1ccc(C(N)=O)cc1` [Example 99, 4-(3-cyano-6-(pyridin-3-ylmethylamino)quinolin-4-ylamino)benzamide] yielded an IC50 of 24100 nM.
Compound `COc1ccc(Cn2cc(CNc3cc(Br)c4ncc(C#N)c(Nc5ccc(F)c(Cl)c5)c4c3)nn2)cc1` [Example 289] has an IC50 of 203 nM.
Compound `N#Cc1cnc2ccc(NCc3ccc[n+]([O-])c3)cc2c1Nc1ccc(F)c(Cl)c1` [Example 30, 4-(3-Chloro-4-fluoro-phenylamino)-6-[(1-oxy-pyridin-3-ylmethyl)-amino]-quinoline-3-carbonitrile] has an IC50 of 130 nM.
Work on `N#Cc1cnc2ccc(NCc3ccn[nH]3)cc2c1NC1CCCCCC1` [Example 251, 4-(cycloheptylamino)-6-[(1H-pyrazol-5-ylmethyl)amino]quinoline-3-carbonitrile] yielded an IC50 of 650 nM.
Compound `N#Cc1cnc2c(Cl)cc(NCCn3cc(CCO)nn3)cc2c1Nc1ccc(F)c(Cl)c1` [Example 213, 8-chloro-4-[(3-chloro-4-fluorophenyl)amino]-6-({2-[4-(2-hydroxyethyl)-1H-1,2,3-triazol-1-yl]ethyl}amino)quinoline-3-carbonitrile] has an IC50 of 1500 nM.
`N#Cc1cnc2ccc(NCC3CCNC3)cc2c1Nc1ccc(F)c(Cl)c1` (centres unmarked) [Example 62, 4-(3-Chloro-4-fluoro-phenylamino)-6-[(pyrrolidin-3-ylmethyl)-amino]-quinoline-3-carbonitrile] gave an IC50 greater than 40000 nM.
Compound `COCCOc1ccc(Br)cc1CNc1ccc2ncc(C#N)c(Nc3ccc(F)c(Cl)c3)c2c1` [Example 48, 6-[5-Bromo-2-(2-methoxy-ethoxy)-benzylamino]-4-(3-chloro-4-fluoro-phenylamino)-quinoline-3-carbonitrile] has an IC50 of 1500 nM.
`N#Cc1cnc2cc(OCCBr)c(NCc3cnc[nH]3)cc2c1Nc1ccc(F)c(Cl)c1` [Example 166, 6-((1H-imidazol-5-yl)methylamino)-7-(2-bromoethoxy)-4-(3-chloro-4-fluorophenylamino)quinoline-3-carbonitrile] was tested, and the IC50 was greater than 40000 nM.
`N#Cc1cnc2ccc(NCc3ccccc3)cc2c1Nc1ccc(N2CCOCC2)cc1` [Example 66, 6-(benzylamino)-4-(4-morpholinophenylamino)quinoline-3-carbonitrile] was tested, and the IC50 was greater than 40000 nM.
`N#Cc1cnc2c(C(F)(F)F)cc(NCc3cnc[nH]3)cc2c1Nc1ccc(F)c(Cl)c1` [Example 229, 4-[(3-chloro-4-fluorophenyl)amino]-6-[(1H-imidazol-5-ylmethyl)amino]-8-(trifluoromethyl)quinoline-3-carbonitrile] was tested, and the IC50 was 190 nM.
In the case of `N#Cc1cnc2ccc(NCc3ncc[nH]3)cc2c1Nc1ccc(F)c(Cl)c1` [Example 13, 4-(3-Chloro-4-fluoro-phenylamino)-6-[(1H-imidazol-2-ylmethyl)-amino]-quinoline-3-carbonitrile], the IC50 is reported as 30 nM.
With `N#Cc1cnc2ccc(NCc3cccc(O)c3)cc2c1Nc1ccc(F)c(Cl)c1` [Example 53, 4-(3-Chloro-4-fluoro-phenylamino)-6-(3-hydroxy-benzylamino)-quinoline-3-carbonitrile] the IC50 was 540 nM.
In the case of `CSc1cc(NCc2cnc[nH]2)cc2c(Nc3ccc(F)c(Cl)c3)c(C#N)cnc12` [Example 287, 4-[(3-chloro-4-fluorophenyl)amino]-6-[(1H-imidazol-5-ylmethyl)amino]-8-(methylthio)quinoline-3-carbonitrile], the IC50 is reported as 340 nM.

Same assay, conditions: Table 2; Tpl2/Cot kinase, GST-MEK1 substrate, 50 uM ATP
Compound `CN(C)CCCOc1ccc(CNc2ccc3ncc(C#N)c(Nc4cccc(Cl)c4)c3c2)cc1` [Example 347] has an IC50 of 600 nM.
`CC(=O)c1cc(NCc2cnc[nH]2)cc2c(Nc3ccc(F)c(Cl)c3)c(C#N)cnc12` [Example 459] showed an IC50 of 23 nM.
Compound `CON(C)C(=O)CNc1cc(Cl)c2ncc(C#N)c(Nc3ccc(F)c(Cl)c3)c2c1` [Example 471] has an IC50 greater than 40000 nM.
`CN(C)C(=O)c1cc(NCc2cccnc2)cc2c(Nc3cccc(Cl)c3)c(C#N)cnc12` [Example 376] showed an IC50 of 400 nM.
Work on `Cc1cc(CNc2ccc3ncc(C#N)c(Nc4ccc(F)c(Cl)c4)c3c2)n[nH]1` [Example 385] yielded an IC50 of 110 nM.
`CC(C)c1cccc(Nc2c(C#N)cnc3ccc(NCCN4CCOCC4)cc23)c1` [Example 352] was tested, and the IC50 was greater than 10000 nM.
For `N#Cc1cnc2c(Br)cc(NCc3cn(CCCO)nn3)cc2c1Nc1ccc(F)c(Cl)c1` [Example 523], the IC50 was 18 nM.
`N#Cc1cncc(-c2ccccc2NCc2cnc[nH]2)c1Nc1ccc(F)c(Cl)c1` [Example 534] was tested, and the IC50 was greater than 3000 nM.

Same assay, conditions: Tpl2/Cot kinase, GST-MEK1 substrate, 50 uM ATP
`N#Cc1cnc2c(Cl)cc(NCc3cn(-c4ccnc(N5CCCCC5)n4)nn3)cc2c1Nc1ccc(F)c(Cl)c1` [Example 747] gave an IC50 of 320 nM.
With `CN1CCC[C@H]1Cn1cc(CNc2cc(Cl)c3ncc(C#N)c(Nc4ccc(F)c(Cl)c4)c3c2)nn1` [Example 894] the IC50 was 1.8 nM.
With `CS(=O)(=O)NCCCn1cc(CNc2cc(Cl)c3ncc(C#N)c(Nc4ccc(F)c(Cl)c4)c3c2)nn1` [Example 905] the IC50 was 2.8 nM.
`CS(=O)(=O)Cn1cc(CNc2cc(Br)c3ncc(C#N)c(Nc4ccc(F)c(Cl)c4)c3c2)nn1` [Example 704] gave an IC50 of 33 nM.
Work on `N#Cc1cnc2c(Br)cc(NCc3cn(CCS(=O)(=O)C4CCCC4)nn3)cc2c1Nc1ccc(F)c(Cl)c1` [Example 699] yielded an IC50 of 53 nM.
For `N#Cc1cnc2c(Br)cc(NCc3cn(C45CC6CC(CC(C6)C4)C5)nn3)cc2c1Nc1ccc(F)c(Cl)c1` [Example 661], the IC50 was 1700 nM.
Work on `CC(C)N1CCC(Cn2cc(CNc3cc(Br)c4ncc(C#N)c(Nc5ccc(F)c(Cl)c5)c4c3)nn2)CC1` [Example 736] yielded an IC50 of 29 nM.

Same assay, conditions: Tpl2/Cot kinase, GST-MEK1 substrate, 50 uM ATP, 1 h at 30° C.; Table 2
For `N#Cc1cnc2c(Cl)cc(NCc3cn(CCC4CCN(CC5CC5)CC4)nn3)cc2c1Nc1ccc(F)c(Cl)c1` [Example 936], the IC50 was 130 nM.
In the case of `CN1CCN(CCn2cc(CNc3cc(Cl)c4ncc(C#N)c(Nc5ccc(F)c(Cl)c5)c4c3)nn2)CC1` [Example 963], the IC50 is reported as 650 nM.
`N#Cc1cnc2c(Cl)cc(NCc3cncc(Br)c3)cc2c1Nc1ccc(F)c(Cl)c1` [Example 1047] was tested, and the IC50 was 470 nM.
Compound `N#CCn1cc(CNc2cc(Cl)c3ncc(C#N)c(Nc4ccc(F)c(Cl)c4)c3c2)nn1` [Example 1021] has an IC50 of 430 nM.
Compound `N#CCN1CCC(n2cc(CNc3cc(Cl)c4ncc(C#N)c(Nc5ccc(F)c(Cl)c5)c4c3)nn2)CC1` [Example 998] has an IC50 of 22 nM.
`N#Cc1cnc2c(Cl)cc(NCc3cn(CCN4CCCCC4)nn3)cc2c1NCC(F)(F)F` [Example 985] showed an IC50 of 1410 nM.
`N#Cc1cnc2c(Cl)cc(NCC3CCCN(C(=O)CNCc4cccnc4)C3)cc2c1Nc1ccc(F)c(Cl)c1` (centres unmarked) [Example 921] showed an IC50 of 540 nM.
